# Reference: patent publication US20240059740A1, “CYCLIC PEPTIDES AND USES THEREOF” (PRE[…] INC., priority 2020, published 2024)
# Residues, ends and D or L forms follow the SMILES beside them.
# Assays:
# U87 cells = test: MTT assay for cytotoxicity, U87; type: cell-based, human; conditions: 48 hours, % viability of control
# Text: (§1) The MTT (3-[4.5-dimethylthiazol-2-yl]-2,5═diphenyl tetrazolium bromide) assay is based on a process undertaken by living cells, involving the conversion of MTT into formazan crystals. This assay is used routinely to measure the in vitro cytotoxic effects of drugs on cell lines or primary patient cells (Van Meerloo et al., 2011). The MTT assay measures mitochondrial activity, so in some instances where the peptide activates mitochondrial response, the results appear to increase the number of cells present i.e. >100% cell viability.
# (§2) The aim of this experiment was to identify peptide concentrations that are active on living cells and cell viability was assessed.
# (§3) The glioblastoma multiforme (GBM) cell lines used were U87 and U251 cells and patient derived cells grown as oncospheres (081024 cells). Human adherent GBM cell lines U87 and U251 were cultured in RPMI medium (Life Technologies Melbourne Australia) supplemented with 5% v/v FBS, 100 U/mL penicillin and 100 μg/mL streptomycin. 081024 cells were cultrured in NeuroCult™ NS-A Proliferation medium with 0.2% (v/v) heparin, 20 ng/mL EGF and 10 ng/mL FGF.
# (§4) 8×10^3 U87 and 7×10^3 U251 cells per well were seeded in 96 well plates in 200 μL serum-containing RPMI medium and incubated at 37° C. with 5% CO2 for 24 hours. After one wash with serum-free medium, 100 μL serum-free medium with different concentration of peptide SEQ ID NO:1 was added to each well. After 48 hours incubation, 10 μL of 0.5 mg/mL MTT was added and incubated for 2 hours at 37° C. Formazan crystals were dissolved by 200 μL/well dimethyl sulfoxide (DMSO) and shaking for 15 minutes. The UV absorbance was read with an iMark™ microplate absorbance reader at 595 nm (Bio-Rad Laboratories). Background absorbance was subtracted and results expressed as the % viability of control (untreated cells).
# 081024 cells = test: MTT assay for cytotoxicity, 081024 oncospheres; type: cell-based, human; conditions: % viability of control
# Text: as §1, §2, §3, §4
# recombinant MMP-2 = target: T1, recombinant MMP-2 (Homo sapiens, UniProt P08253); test: MMP-2 Inhibitor Screening Assay Kit (colorimetric); type: biochemical
# T1 construct: purchased ab139446
# T1 sequence (P08253 110-660): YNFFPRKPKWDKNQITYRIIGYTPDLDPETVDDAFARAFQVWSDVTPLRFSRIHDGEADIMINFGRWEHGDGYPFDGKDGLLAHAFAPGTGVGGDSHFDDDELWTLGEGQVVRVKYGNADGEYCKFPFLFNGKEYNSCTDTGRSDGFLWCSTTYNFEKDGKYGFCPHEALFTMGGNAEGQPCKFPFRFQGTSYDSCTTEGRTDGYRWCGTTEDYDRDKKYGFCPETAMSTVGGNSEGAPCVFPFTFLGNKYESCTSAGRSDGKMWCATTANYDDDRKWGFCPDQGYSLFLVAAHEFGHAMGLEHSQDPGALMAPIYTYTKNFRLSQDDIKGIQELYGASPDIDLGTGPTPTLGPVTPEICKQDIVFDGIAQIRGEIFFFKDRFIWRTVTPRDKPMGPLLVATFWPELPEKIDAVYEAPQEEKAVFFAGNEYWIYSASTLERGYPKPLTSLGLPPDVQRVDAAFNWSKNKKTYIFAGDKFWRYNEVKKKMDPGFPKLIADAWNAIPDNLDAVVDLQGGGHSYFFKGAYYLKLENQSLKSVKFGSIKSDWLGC
# Experimental: MMP-2 is an important target for inhibitor screening due to its involvement in cancer growth, angiogenesis, and metastasis. The MMP-2 screening assay was carried out with a commercially available MMP-2 Inhibitor Screening Assay Kit (Colorimetric, Catalog: ab139446) based on the manufacturers protocol. This assay is based on quantification of recombinant MMP-2 activity using a colorimetric assay (MMP-2 degrades a chromogenic substrate). The assay provides NNGH (N-isobutyl-N-(4-methoxyphenylsulfonyl) glycyl hydroxamic acid), a small molecule inhibitor, as a positive control (NNGH). […] Each determination was run in duplicate.
# % Inhibition rate=(Vinhibitor/Vcontrol)×100
# Briefly, MMP Substrate and MMP Inhibitor were warmed to room temperature to thaw DMSO. MMP Inhibitor (NNGH), MMP-2 substrate and MMP-2 enzyme were diluted with assay buffer to required concentration. 20 μL of MMP-2 enzyme and MMP-2 inhibitor (peptides, Chlorotoxin and NNGH) was added, then 50 μL of assay buffer was added and the reaction mixture incubated at 37° C. for 1 h. After incubation, 10 μL of MMP Substrate was added to start reaction. The reactions were continuously read at 412 nm in a microplate reader. Data was recorded at 1 min. time intervals for 10 to 20 min. The data as was plotted as optical density (OD) versus time for each sample. The reaction velocity (V) was obtained in OD/min: determine the slope of a line fit to the linear portion of the data plot using an appropriate routine. Then using the equation above the inhibitor % activity remaining was calculated. The control was without inhibitor.
structure (smiles),measurement,setting,value
"CC(C)C[C@@H]1NC(=O)[C@H](C)NC(=O)[C@@H](NC(=O)[C@@H]2CCCN2C(=O)[C@@H](N)CC(C)C)CSSC(C)(C)CNC(=O)CC[C@@H](C(=O)N[C@@H](CCCNC(=N)N)C(N)=O)NC(=O)[C@H](CC(=O)O)NC(=O)[C@H](CC(N)=O)NC1=O [SEQ ID NO: 1, Leu-Pro-c(SSA*-Ala-Leu-Asn-Asp-Glu)-Arg-NH2] (HELM PEPTIDE1{L.P.C.A.L.N.D.E.R.[am]}|CHEM1{[CC(C)(CN[*:2])S[*:1]]}$PEPTIDE1,CHEM1,3:R3-1:R1|PEPTIDE1,CHEM1,8:R3-1:R2$$$V2.0; N-terminus assumed)",Cell viability,U87 cells; 1 μM,96.34%
same,Cell viability,U87 cells; 5 μM,102.4%
same,Cell viability,U87 cells; 10 μM,100.1%
same,Cell viability,U87 cells; 50 μM,98.71%
same,Cell viability,U87 cells; 100 μM,102.8%
same,Cell viability,U87 cells; 500 μM,96.94%
same,Cell viability,U87 cells; 1 mM,83.41%
same,Cell viability,081024 cells; 1 μM,104.2%
same,Cell viability,081024 cells; 5 μM,106.8%
same,Cell viability,081024 cells; 10 μM,106.7%
same,Cell viability,081024 cells; 50 μM,106.5%
same,Cell viability,081024 cells; 100 μM,106.9%
same,Cell viability,081024 cells; 500 μM,99.68%
same,Cell viability,081024 cells; 1 mM,89.58%
same,remaining activity at 1 µM,"recombinant MMP-2; 1 μM, 1 h preincubation at 37° C., lower value = higher inhibitory activity, read-out: % inhibition (Vinhibitor/Vcontrol ×100)",81%
same,remaining activity at 10 µM,"recombinant MMP-2; 10 μM, lower value = higher inhibitory activity, read-out: % inhibition (Vinhibitor/Vcontrol ×100)",75.2%
same,remaining activity at 100 µM,"recombinant MMP-2; 100 μM, lower value = higher inhibitory activity, read-out: % inhibition (Vinhibitor/Vcontrol ×100)",66.9%
same,inhibition of MMP-2 activity (in words),recombinant MMP-2; 1 to 100 μM,dose dependent ability to inhibit MMP-2 activity
